The values that follow come from PMC10892818, “An Antiherpesviral Host-Directed Strategy Based on CDK7 Covalently Binding Drugs: Target-Selective, Picomolar-Dose, Cross-Virus Reactivity” (Pharmaceutics, 2024).

Where two headings read alike, the source gives them in different places.

The nature of data set [1]: Neutral Red uptake assay (NRA), iSLK.219 cells. The format is cell-based. Conditions: human, read-out: CC50 (KSHV-GFP/RFP system). On the procedure:
The virus recombinants VZV Oka-GFP and rKSHV.219-GFP/RFP were used for the infection of HFFs (VZV) or were continuously passaged in iSLK.219 carrier cells (KSHV), respectively, and cell viability was determined by NRA performed with uninfected HFFs or uninduced iSLK.219 cells, respectively. (A,B) Schematic depiction of the assay systems performed in a 96 well plate format. […] For the VZV-GFP system, virus stock VZV Oka-GFP was applied as a cell-bound infectious inoculum. After a 90 min period of inoculum adsorption to the cell surfaces, antiviral compounds were added to the culture media at serial dilutions (DMSO served as a solvent control for drug treatment of infected cells, while mock-infected cells served as a negative control). For the KSHV-GFP/RFP system, iSLK.219 cell lytic replication of KSHV (RFP reporter signal) was induced by the addition of 0.05 or 0.5 µg/mL doxycycline (dox) to the culture media. Cultivated dox-induced iSLK.219 cells were treated with antiviral compounds added at serial dilutions (DMSO served as a positive infection solvent control, while dox-untreated mock cells served as a negative control). HFFs or iSLK.219 cells were harvested at 4 d p.i. or 1 d after treatment, respectively, fixed by a 10 min incubation with 10% formalin, washed with PBS, and used for quantitation of the GFP or RFP reporter signal by PicoMD counting (ImageXpress® Pico device, Molecular Devices LLC, San Jose, CA, USA), with data evaluation using CellReporterXpress® software (version 2.9.3.1183, Molecular Devices LLC) as described earlier in [63]. (C) The antiviral activity of the reference drugs was determined with the VZV-GFP system in the 96 well format. EC50 values refer to measurements in quadruplicate, and the mean values ± SD of two experimental replicates are given. (D) The antiviral activity of the reference drugs was determined with the KSHV-GFP/RFP system in the 96 well format. EC50 values refer to measurements in triplicate, and the mean values ± SD are given for each of the two depicted experimental replicates.

For another data set, the system named is HCMV UL97-H469V. More on the design: method as in PMID 31940472; key: R-high, high-level drug resistance; R-int, intermediate-level drug resistance; R-low, low-level drug resistance; S, drug sensitivity. The note with it: cited from earlier work.
Data set [2] has as its system GCV- or MBV-resistant HCMV variants (ORF-UL97 mutants). As to the kind of experiment: HCMV reporter-based antiviral assays, series of GCV- or MBV-resistant variants. The format is cell-based, human cytomegalovirus. As for the experimental part:
For the infection experiments, stocks of the following recombinant, reporter protein-expressing viruses (GFP or YFP (i.e., green or yellow fluorescent protein, respectively)) were propagated (in permissive cells), determined in their infectious titers performing the respective reporter assays, stored by aliquots at −80 °C, and used for the assessment of antiviral drug activities: human cytomegalovirus HCMV AD169-GFP (HFFs); murine cytomegalovirus MCMV C3X-GFP (MEFs); guinea pig cytomegalovirus GPCMV v403-GFP (GPEFs); human herpesvirus type 6A HHV-6A U1102-GFP (J-Jhan); herpes simplex virus type 1 HSV-1 166v VP22-GFP (HFFs); varicella zoster virus VZV Oka-GFP (HFFs); Epstein-Barr virus EBV Akata-GFP (Akata-BX1-GFP carrier cells; kindly provided by Lindsey Hutt-Fletcher and Rona Scott, Dept. Microbiol. […]
Due to the fact that the HCMV-encoded protein kinase pUL97 represents a functional and structural ortholog of the host CDKs (vCDK/pUL97), the viral mutants of ORF-UL97 were assessed for sensitivity against CDK7 inhibitors. […] These HCMVs (i.e., UL97 mutants C592G, H520Q (GCV-res.) L397R (MBV-res.) M460I, T409M, H411Y, C480F, F432S, C603W (GCV- and MBV-double res.), and H469V (not determined yet)) were used for comparative analysis in HCMV reporter-based antiviral assays.

On to `Nc1nc(O)c2ncn(COC(CO)CO)c2n1` [GCV, ganciclovir], for which the CC50 in data set [1] (marked 0.05 μg/mL dox) and in data set [1] (marked 0.5 μg/mL dox) was more than 100 µM throughout.

For the molecule `Nc1ccn(C[C@@H](CO)OCP(=O)(O)O)c(=O)n1` [CDV, cidofovir], the “Reported phenotype UL97-H469V” value in the data set on HCMV UL97-H469V was “nd | nd | S”. For the same molecule, the “drug resistance / sensitivity of the GCV- and MBV-resistant HCMVs” value in data set [2] was “all viruses showed sensitivity”.
